Paper PMC9144445, “Substrate-Based Design of Cytosolic Nucleotidase IIIB Inhibitors and Structural Insights into Inhibition Mechanism” (Pharmaceuticals, 2022)

Columns and labels:
mouse eIF4E = mouse eIF4E (Mus musculus, UniProt P63073); assay: eIF4E competition binding assay with pyrene-labelled fluorescent probe; settings: for EC50: mouse eIF4E 400 nM, pyrene-labelled probe 75 nM
human cN-IIIA = human cN-IIIA (Homo sapiens, UniProt Q9H0P0); assay: IC50 determination for cN-IIIA (MGP assay); type: biochemical; settings: for IC50: m7GMP 100 µM, cN-IIIA 40 nM, 25 min, MGP assay
Experimental: To determine the inhibitory potency towards cN-IIIA, compounds were evaluated using the MGP assay in an analogous way as described above for cN-IIIB.
All experiments were performed in triplicate.

[1] = test system: endogenous cN-IIIB, m^7GMP dephosphorylation in cytoplasmic HEK 293T cell extracts; assay: m7GMP decay in HEK 293T cell extract in presence of inhibitors (LC–MS/MS); type: biochemical, human; settings: compound 100 µM, [2H]-m7GMP 4 µM, 37 °C, up to 60 min
Experimental: The expression of cN-IIIB was verified by Western blot and was the most abundant in HEK 293T among four tested cell lines (Figure 9A). The cN-IIIA isoform was likewise abundantly expressed in the HEK cell line. The stability and activity of the inhibitors were tested in HEK 293T cell extracts using mass spectrometry analysis. The evaluated set of compounds contained some of the identified cN-IIIB inhibitors: 4, 5, 5a, and 5d of varying inhibitory potencies as well as compound S16 with no inhibitory potency (negative control). Initially, we verified the stability of the compounds in the extracts. The LC–MS/MS analyses confirmed that all analyzed compounds were stable in the lysate for at least 60 min (Figure 9B). Then, we monitored the time-dependent degradation of heavy m^7GMP, deuterated within the methyl group ([^2H]-m^7GMP]) in the extracts, in the presence or absence of the evaluated compounds (100 µM each, Figure 9C).
A typical reaction contained 1 µL–40 µM (final concentrations 4 µM) of [^2H]m^7GMP and 9 µL cell extracts. […]
Chromatographic separation of nucleotides and their metabolites was achieved on a ZORBAX Eclipse Plus C18 analytical column (3.5 μm, 4.6 mm × 100 mm, Agilent) equipped with Eclipse Plus-C18 analytical guard column (5.0 μm, 4.6 × 12.5 mm). […] Then, the analytes in the HPLC eluate were monitored by MS in multiple reaction monitoring (MRM) mode. […]

mouse eIF4E, sequence (P63073 whole entry): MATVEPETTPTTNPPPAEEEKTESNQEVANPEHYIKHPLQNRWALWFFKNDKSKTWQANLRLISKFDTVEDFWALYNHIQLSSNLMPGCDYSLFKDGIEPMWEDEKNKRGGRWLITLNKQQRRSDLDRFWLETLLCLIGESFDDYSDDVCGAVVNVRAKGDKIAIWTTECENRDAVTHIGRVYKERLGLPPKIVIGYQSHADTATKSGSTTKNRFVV

SMILES | EC50 (mouse eIF4E) [µM] | IC50 (human cN-IIIA) [µM] | Affinity to eIF4E compared to m7GMP (mouse eIF4E; comparison of EC50 values) | SI (cN-IIIB/eIF4E) (mouse eIF4E; ratio of IC50 for cN-IIIB and EC50 for eIF4E) | SI (cN-IIIB/cN-IIIA) (human cN-IIIA; ratio of IC50 for cN-IIIB and IC50 for cN-IIIA) | Inhibition of m7GMP decay in HEK 293T cell extract (in words) [1]
Nc1nc2c(c(=O)[nH]1)[n+](Cc1ccc(F)c(F)c1)cn2C1OC(COP(=O)([O-])O)C(O)C1O (centres unmarked) [Compound 5d] | 39.9 ± 8.5 | 106 ± 26.6 |  |  |  | 
Nc1nc2c(c(=O)[nH]1)[n+](Cc1ccc(C(F)(F)F)cc1)cn2[C@@H]1O[C@H](COP(=O)([O-])O)[C@@H](O)[C@H]1O [Compound 5g, 7-(4-Trifluoromethylbenzyl)guanosine 5’-Monophosphate] | 118 ± 66.4 | 42.5 ± 8.3 | at least two-fold lower affinity | 0.06 | 0.17 | 
C[n+]1cn([C@@H]2O[C@H](Cn3cc(CCP(=O)([O-])O)nn3)[C@@H](O)[C@H]2O)c2nc(N)[nH]c(=O)c21 [Compound S16] |  |  |  |  |  | almost complete decay of m^7GMP was observed within the first 50 min

Now from value to compound, other results behind:

EC50 (mouse eIF4E) [µM] | IC50 (human cN-IIIA) [µM] | Affinity to eIF4E compared to m7GMP (mouse eIF4E; comparison of EC50 values) | SI (cN-IIIB/eIF4E) (mouse eIF4E; ratio of IC50 for cN-IIIB and EC50 for eIF4E) | SI (cN-IIIB/cN-IIIA) (human cN-IIIA; ratio of IC50 for cN-IIIB and IC50 for cN-IIIA) | SMILES | Inhibition of m7GMP decay in HEK 293T cell extract (in words) [1]
22.6 ± 4.3 | 127 ± 35.6 |  |  |  | Cc1cccc(C[n+]2cn([C@@H]3O[C@H](COP(=O)([O-])O)[C@@H](O)[C@H]3O)c3nc(N)[nH]c(=O)c32)c1 [Compound 5a] | 
 | 113 ± 38.5 |  |  |  | Nc1nc2c(c(=O)[nH]1)[n+](Cc1ccccc1)cn2[C@@H]1O[C@H](COP(=O)([O-])O)[C@@H](O)[C@H]1O [Compound 5] | 
